# Where two headings read alike, the source gives them in different places.
# Legend:
# Type in all cases: cell-based
# RSV strain A2 = experiment: RSV HEp-2 EC50 (infectious cytopathic cell protection assay); settings: HEp-2 cells, RSV A2, 4 days, read-out: RSV HEp-2 EC50
# Outline: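 Percent inhibition of RSV-induced cytopathic effect came from remaining cell viability (CellTiter-Glo luminescence) after 4 days at 37° C. Compounds in 3-fold serial dilutions were exposed to an infectious mix of titered A2 virus and HEp-2 cells at 50,000/ml, with 0% and 100% inhibition control standards.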
# HRV16 = HRV16 HELA EC50 (cytopathic effect in H1-HeLa cells)
# Outline: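 Read-out is luminescent cell viability (CellTiter-Glo) after 96 h of infection at 33 °C, scaled between uninfected and infected-untreated wells. Before infection with titrated virus, compounds went onto H1-HeLa cells as triplicate 3-fold dilution series.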
# DENV2 replicon = experiment: DENV-2 Huh-7 Rep EC50 (replicon luminescence); settings: read-out: DENV-2 Huh-7 Rep EC50
# Outline: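 EC50 derived from luminescence dose-response, normalised to DMSO-only 0% inhibition wells, after 1.5 h with EnduRen substrate. Compounds were first exposed for 48 h at 37° C to DENV2 replicon Huh-7 cells (5,000/well).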
# RSV A2 = experiment: RSV NHBE EC50 (RSV A2 antiviral assay in normal human bronchial epithelial cells); settings: NHBE cells, RSV A2, 4 days, read-out: RSV NHBE EC50
# [1] = human respiratory syncytial virus, HEp-2, 96 h
# [2] = 96 h, H1-HeLa cells, 33° C., read-out: HRV16 HELA EC50
# [3] = Dengue virus, DENV2, Huh-7, 48 h, Huh-7 replicon cells, 48 hours
# [4] = human respiratory syncytial virus, NHBE, 96 h
# [5] = human respiratory syncytial virus, 96 h
# [6] = H1-HeLa cells, 96 h, 33° C.; read-out: HRV16 HELA EC50
# [7] = Dengue virus, DENV2, Huh-7, 48 h
SMILES,EC50 (RSV strain A2; [1]) [µM],EC50 (HRV16; [2]) [µM],EC50 (DENV2 replicon; [3]) [µM],EC50 (RSV A2; [4]) [µM],EC50 (HRV16; [6]) [µM],also measured
"CC(C)(CO)C(=O)OCCNP(=O)(OC[C@@]1(C#N)O[C@@H](c2ccc3c(N)ncnn23)[C@H](O)[C@@H]1O)Oc1ccccc1 (stereo partly drawn) [Example 126, 2-(((((2R,3S,4R,5S)-5-(4-aminopyrrolo[2,1-f][1,2,4]triazin-7-yl)-2-cyano-3,4-dihydroxytetrahydrofuran-2-yl)methoxy)(phenoxy)phosphoryl)amino)ethyl 3-hydroxy-2,2-dimethylpropanoate]",6.56,27.9,> 50,1.79,–,–
"CC(C)[C@H](N)C(=O)OCCNP(=O)(OC[C@@]1(C#N)O[C@@H](c2ccc3c(N)ncnn23)[C@H](O)[C@@H]1O)Oc1ccccc1 (stereo partly drawn) [Example 131, (2S)-2-(((((2R,3S,4R,5S)-5-(4-aminopyrrolo[2,1-f][1,2,4]triazin-7-yl)-2-cyano-3,4-dihydroxytetrahydrofuran-2-yl)methoxy)(phenoxy)phosphoryl)amino)ethyl 2-amino-3-methylbutanoate]",0.315,1.81,> 50,0.636,–,–
"CCC(CC)COC(=O)[C@H](CC1CC1)NP(=O)(OC[C@@]1(C#N)O[C@@H](c2ccc3c(N)ncnn23)[C@H](O)[C@@H]1O)Oc1ccccc1 (stereo partly drawn) [Example 132, (2S)-2-ethylbutyl 2-(((((2R,3S,4R,5S)-5-(4-aminopyrrolo[2,1-f][1,2,4]triazin-7-yl)-2-cyano-3,4-dihydroxytetrahydrofuran-2-yl)methoxy)(phenoxy)phosphoryl)amino)-3-cyclopropylpropanoate]",1.99,22.4,44.6,0.523,–,–
"C[C@H](N)C(=O)OCCNP(=O)(OC[C@@]1(C#N)O[C@@H](c2ccc3c(N)ncnn23)[C@H](O)[C@@H]1O)Oc1ccccc1 (stereo partly drawn) [Example 133, 2-(((((2R,3S,4R,5S)-5-(4-aminopyrrolo[2,1-f][1,2,4]triazin-7-yl)-2-cyano-3,4-dihydroxytetrahydrofuran-2-yl)methoxy)(phenoxy)phosphoryl)amino)ethyl L-alaninate]",4.72,16.5,> 50,> 5,–,–
"C[C@H](NP(=O)(OC[C@@]1(C#N)O[C@@H](c2ccc3c(N)ncnn23)[C@H](O)[C@@H]1O)Oc1ccccc1)C(=O)OC1CCCCCC1 (stereo partly drawn) [Example 134, (2S)-cycloheptyl 2-(((((2R,3S,4R,5S)-5-(4-aminopyrrolo[2,1-f][1,2,4]triazin-7-yl)-2-cyano-3,4-dihydroxytetrahydrofuran-2-yl)methoxy)(phenoxy)phosphoryl)amino)propanoate]",0.334,0.247,24.7,0.052,–,–
"CC(C)[C@H](NC(=O)OC(C)(C)C)C(=O)OCCNP(=O)(OC[C@@]1(C#N)O[C@@H](c2ccc3c(N)ncnn23)[C@H](O)[C@@H]1O)Oc1ccccc1 (stereo partly drawn) [Example 139, (2S)-2-(((((2R,3S,4R,5S)-5-(4-aminopyrrolo[2,1-f][1,2,4]triazin-7-yl)-2-cyano-3,4-dihydroxytetrahydrofuran-2-yl)methoxy)(phenoxy)phosphoryl)amino)ethyl 2-((tert-butoxycarbonyl)amino)-3-methylbutanoate]",6.43,28.3,> 50,0.103,–,–
"C[C@@H](NP(=O)(OC[C@@]1(C#N)O[C@@H](c2ccc3c(N)ncnn23)[C@H](O)[C@@H]1O)Oc1ccccc1)C(=O)O[C@@H]1CCN(C(=O)OC(C)(C)C)C1 (stereo partly drawn) [Example 140, (3R)-tert-butyl 3-(((2R)-2-(((((2R,3S,4R,5S)-5-(4-aminopyrrolo[2,1-f][1,2,4]triazin-7-yl)-2-cyano-3,4-dihydroxytetrahydrofuran-2-yl)methoxy)(phenoxy)phosphoryl)amino)propanoyl)oxy)pyrrolidine-1-carboxylate]",8.89,23.3,> 50,> 5,–,–
"CC1(C(=O)OCCNP(=O)(OC[C@@]2(C#N)O[C@@H](c3ccc4c(N)ncnn34)[C@H](O)[C@@H]2O)Oc2ccccc2)CC1 (stereo partly drawn) [Example 141, 2-(((((2R,3S,4R,5S)-5-(4-aminopyrrolo[2,1-f][1,2,4]triazin-7-yl)-2-cyano-3,4-dihydroxytetrahydrofuran-2-yl)methoxy)(phenoxy)phosphoryl)amino)ethyl 1-methylcyclopropane-1-carboxylate]",2.01,14.9,> 50,0.067,–,–
"CC(=O)N1CC[C@@H](OC(=O)[C@H](C)NP(=O)(OC[C@@]2(C#N)O[C@@H](c3ccc4c(N)ncnn34)[C@H](O)[C@@H]2O)Oc2ccccc2)C1 (stereo partly drawn) [Example 146, (2S)—(R)-1-acetylpyrrolidin-3-yl 2-(((((2R,3S,4R,5S)-5-(4-aminopyrrolo[2,1-f][1,2,4]triazin-7-yl)-2-cyano-3,4-dihydroxytetrahydrofuran-2-yl)methoxy)(phenoxy)phosphoryl)amino)propanoate]",9.72,> 50,> 50,> 5,–,–
"CCCCCCCCCCCCCCCCCCOCCOP(=O)(O)OC[C@@]1(C#N)O[C@@H](c2ccc3c(N)ncnn23)[C@H](O)[C@@H]1O [Example 148, ((2R,3S,4R,5S)-5-(4-aminopyrrolo[2,1-f][1,2,4]triazin-7-yl)-2-cyano-3,4-dihydroxytetrahydrofuran-2-yl)methyl (2-(octadecyloxy)ethyl) hydrogen phosphate]",–,–,–,–,36.9,EC50 (RSV strain A2; [5]): 2.67 µM; EC50 (DENV2 replicon; [7]): > 50 µM; EC50 (RSV A2; [5]): 0.32 µM
C[C@H](NP(=O)(OC[C@@]1(C#N)O[C@@H](c2ccc3c(N)ncnn23)[C@H](O)[C@@H]1O)Oc1ccccc1)C(=O)OC1CCN(C)CC1 (stereo partly drawn) [Example 150],4.16,49.9,> 100,–,–,"EC50 (RSV A2; human respiratory syncytial virus, NHBE, in Homo sapiens, 96 h): > 5 µM"
"C[C@H](NP(=O)(OC[C@@]1(C#N)O[C@@H](c2ccc3c(N)ncnn23)[C@H](O)[C@@H]1O)Oc1ccccc1)C(=O)OC1CCOC(C)(C)C1 (stereo partly drawn) [Example 156, 2,2-dimethyltetrahydro-2H-pyran-4-yl ((((2R,3S,4R,5S)-5-(4-aminopyrrolo[2,1-f][1,2,4]triazin-7-yl)-2-cyano-3,4-dihydroxytetrahydrofuran-2-yl)methoxy)(phenoxy)phosphoryl)alaninate]",8.94,25.9,> 100,1.37,–,–
CC[C@H](N[P@@](=O)(OC[C@@]1(C#N)O[C@@H](c2ccc3c(N)ncnn23)[C@H](O)[C@@H]1O)Oc1ccccc1)C(=O)OCC(C)(C)C [Example 158],–,–,–,–,13,"EC50 (RSV strain A2): 0.969 µM; EC50 (DENV2 replicon; Huh-7 replicon cells, 48 hours): > 50 µM; EC50 (RSV A2): 1.27 µM"
CC[C@H](N[P@](=O)(OC[C@@]1(C#N)O[C@@H](c2ccc3c(N)ncnn23)[C@H](O)[C@@H]1O)Oc1ccccc1)C(=O)OCC(C)(C)C [Example 159],–,–,–,–,1.28,"EC50 (RSV strain A2): 0.22 µM; EC50 (DENV2 replicon; Huh-7 replicon cells, 48 hours): > 50 µM; EC50 (RSV A2): 0.489 µM"
C[C@H](NP(=O)(OC[C@@]1(C#N)O[C@@H](c2ccc3c(N)ncnn23)[C@H](O)[C@@H]1O)Oc1ccccc1)C(=O)O[C@@H](C)C(N)=O (stereo partly drawn) [Example 160],–,–,–,–,29.1,"EC50 (RSV strain A2): 7.3 µM; EC50 (DENV2 replicon; Huh-7 replicon cells, 48 hours): > 50 µM; EC50 (RSV A2): > 5 µM"
"N#C[C@@]12COP(=O)(OC3CCCC3)O[C@H]1[C@@H](O)[C@H](c1ccc3c(N)ncnn13)O2 (stereo partly drawn) [Example 161, (4aR,6S,7S,7aS)-6-(4-aminopyrrolo[2,1-f][1,2,4]triazin-7-yl)-2-(cyclopentyloxy)-7-hydroxydihydro-4H-furo[3,2-d][1,3,2]dioxaphosphinine-4a(6H)-carbonitrile 2-oxide]",–,–,–,–,13.8,EC50 (RSV strain A2; [5]): 6.48 µM; EC50 (DENV2 replicon; [7]): > 50 µM; EC50 (RSV A2; [5]): 1.49 µM
"C[C@H](NP(=O)(OC[C@@]1(C#N)O[C@@H](c2ccc3c(N)ncnn23)[C@H](O)[C@@H]1O)Oc1ccccc1)C(=O)OCCN(C)C (stereo partly drawn) [Example 162, 2-(dimethylamino)ethyl ((((2R,3S,4R,5S)-5-(4-aminopyrrolo[2,1-f][1,2,4]triazin-7-yl)-2-cyano-3,4-dihydroxytetrahydrofuran-2-yl)methoxy)(phenoxy)phosphoryl)-L-alaninate]",6.05,12.8,13.8,> 5,–,–
"CC(C)OP1(=O)OC[C@@]2(C#N)O[C@@H](c3ccc4c(N)ncnn34)[C@H](O)[C@@H]2O1 (stereo partly drawn) [Example 163, (4aR,6S,7S,7aS)-6-(4-aminopyrrolo[2,1-f][1,2,4]triazin-7-yl)-7-hydroxy-2-isopropoxydihydro-4H-furo[3,2-d][1,3,2]dioxaphosphinine-4a(6H)-carbonitrile 2-oxide]",–,–,–,–,> 50,EC50 (RSV strain A2; [5]): 13.3 µM; EC50 (DENV2 replicon; [7]): > 50 µM; EC50 (RSV A2; [5]): 9.21 µM

# — patent US20230295201A1 (Gilead Sciences, Inc., priority 2020, published 2023)
